The values that follow come from patent US20250195530A1, “POLQ INHIBITORS” (ASTRAZENECA AB, priority 2022, published 2025).

In one test the test system is DLD-1 BRCA2−/− cells. Kind of test: Homologous recombination synthetic lethal inhibition of proliferation, DLD-1 BRCA2-/- (Cell Titre Glo 3D). In kind it is cell-based. The note with it: Homo sapiens, DLD-1, DLD-1 BRCA2-/- proliferation; column head only partly shown; read-out: POLQ PD Prolif Lumin (converted). A digest of the protocol: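 Cells are seeded in RPMI 1640 (phenol red free, 10% FBS, GlutaMAX) onto pre-dosed compound (10 μM to 0.51 nM, three-fold). Plates are incubated at 37 °C, and medium plus compound are refreshed on day 6. Viability is read by CellTiter-Glo 3D at day 7 (DLD-1) or day 12 (DLD-1 BRCA2−/−), and the IC50 is fitted.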
Consider `COC(=O)NCCc1ccc(-c2nc3c(OC4(C)CC4)ncnc3n2Cc2cc(C)ccn2)c(Cl)c1` [Example T222, methyl (3-chloro-4-(6-(1-methylcyclopropoxy)-9-((4-methylpyridin-2-yl)methyl)-9H-purin-8-yl)phenethyl)carbamate], for which the IC50 is 200 nM.
Still for that read-out and setting: in the case of `Cc1ccnc(Cn2c(-c3ccc(OCCNC(=O)CO)cc3Cl)nc3c(OC4(C)CC4)ncnc32)c1` [Example T227, N-(2-(3-chloro-4-(6-(1-methylcyclopropoxy)-9-((4-methylpyridin-2-yl)methyl)-9H-purin-8-yl)phenoxy)ethyl)-2-hydroxyacetamide] it was 316 nM.

Staying with this test, now noted: Homo sapiens, DLD-1, DLD-1 BRCA2 −/− cells; mean; read-out: POLQ PD Prolif Lumin BRCA2 −/− mean pIC50 (converted).
In the case of `Cc1noc(C)c1Cn1c(-c2ccc(CC(N)=O)cc2Cl)nc2c(OC3(C)CC3)ncnc21` [Example T27, 2-(3-chloro-4-(9-((3,5-dimethylisoxazol-4-yl)methyl)-6-(1-methylcyclopropoxy)-9H-purin-8-yl)phenyl)acetamide], the IC50 is over 10000 nM.
Same read-out and setting: in the case of `Cc1ccnc(Cn2c(-c3ccc(OCC(F)(F)CO)cc3Cl)nc3c(OC4(C)CC4)ncnc32)c1` [Example T98, 3-(3-chloro-4-(6-(1-methylcyclopropoxy)-9-((4-methylpyridin-2-yl)methyl)-9H-purin-8-yl)phenoxy)-2,2-difluoropropan-1-ol] it was 100 nM; in that of `CC1(Oc2ncnc3c2nc(-c2ccc(CC(N)=O)cc2Cl)n3Cc2cccc(Cl)c2)CC1` [Example T45, 2-(3-chloro-4-(9-(3-chlorobenzyl)-6-(1-methylcyclopropoxy)-9H-purin-8-yl)phenyl)acetamide], 50.1 nM.
Still for that read-out and setting: the same measure for `CC1(Oc2ncnc3c2nc(-c2ccc(CC(N)=O)cc2Cl)n3Cc2ccc(F)cc2)CC1` [Example T43, 2-(3-chloro-4-(9-(4-fluorobenzyl)-6-(1-methylcyclopropoxy)-9H-purin-8-yl)phenyl)acetamide]: 631 nM.

Staying with this test, now noted: Homo sapiens, DLD-1, DLD-1 BRCA2 −/−, mean; read-out: POLQ PD Prolif Lumin BRCA2 −/− mean pIC50 (converted).
On to `CC(CCOc1ccc(-c2nc3c(OC4(C)CC4)ncnc3n2Cc2ccc(C#N)cc2)c(Cl)c1)C(=O)O` (racemic) [Example U7, 4-(3-chloro-4-(9-(4-cyanobenzyl)-6-(1-methylcyclopropoxy)-9H-purin-8-yl)phenoxy)-2-methylbutanoic acid], for which the IC50 is 2510 nM.

The test is the same for the next values; noted with them: Homo sapiens, DLD-1, first proliferation column (c5), taken as DLD-1 BRCA2-/-; read-out: POLQ PD Prolif Lumin (converted).
`Cc1ccnc(Cn2c(-c3ccc(C(=O)N4CCCC4)cc3Cl)nc3c(OC4(C)CC4)ncnc32)c1` [Example T309, (3-chloro-4-(6-(1-methylcyclopropoxy)-9-((4-methylpyridin-2-yl)methyl)-9H-purin-8-yl)phenyl)(pyrrolidin-1-yl)methanone]: the IC50 was 631 nM.
Still for that read-out and setting: in the case of `Cc1ccnc(Cn2c(-c3ccc(C(=O)N4CC(C)(O)C4)cc3Cl)nc3c(OC4(C)CC4)ncnc32)c1` [Example T314, (3-chloro-4-(6-(1-methylcyclopropoxy)-9-((4-methylpyridin-2-yl)methyl)-9H-purin-8-yl)phenyl)(3-hydroxy-3-methylazetidin-1-yl)methanone] it was 1260 nM.

The test is the same for the next values; noted with them: Homo sapiens, DLD-1, first proliferation column (c5); DLD-1 BRCA2-/-; read-out: POLQ PD Prolif Lumin (converted).
As for `C[C@H](COc1cccc(-c2nc3c(OC4(C)CC4)ncnc3n2Cc2cccc(Cl)c2)c1Cl)C(=O)O` [Example T159, (R)-3-(2-chloro-3-(9-(3-chlorobenzyl)-6-(1-methylcyclopropoxy)-9H-purin-8-yl)phenoxy)-2-methylpropanoic acid], the IC50 was 126 nM.
In the case of `CNC(=O)CNc1ccc(-c2nc3c(OC4(C)CC4)ncnc3n2Cc2cc(C)ccn2)c(Cl)c1` [Example T131, 2-((3-chloro-4-(6-(1-methylcyclopropoxy)-9-((4-methylpyridin-2-yl)methyl)-9H-purin-8-yl)phenyl)amino)-N-methylacetamide], the IC50 is 794 nM.
Same read-out and setting: in the case of `Cc1ccnc(Cn2c(-c3ccc(CC(=O)N4CC5(CNC5)C4)cc3Cl)nc3c(OC4(C)CC4)ncnc32)c1` [Example T558, 2-(3-chloro-4-(6-(1-methylcyclopropoxy)-9-((4-methylpyridin-2-yl)methyl)-9H-purin-8-yl)phenyl)-1-(2,6-diazaspiro[3.3]heptan-2-yl)ethan-1-one] it was over 10000 nM; in that of `Cc1ccnc(Cn2c(-c3ccc(OC4CCNC4=O)cc3Cl)nc3c(OC4(C)CC4)ncnc32)c1` (racemic) [Example T178, 3-(3-chloro-4-(6-(1-methylcyclopropoxy)-9-((4-methylpyridin-2-yl)methyl)-9H-purin-8-yl)phenoxy)pyrrolidin-2-one], 501 nM; in that of `Cc1ccnc(Cn2c(-c3ccc(N4CCNC(=O)C4)cc3Cl)nc3c(OC4(C)CC4)ncnc32)c1` [Example T201, 4-(3-chloro-4-(6-(1-methylcyclopropoxy)-9-((4-methylpyridin-2-yl)methyl)-9H-purin-8-yl)phenyl)piperazin-2-one], 501 nM.
Consider `Cc1ccnc(Cn2c(-c3ccc(CC(=O)NCC(C)(C)O)cc3Cl)nc3c(OC4(C)CC4)ncnc32)c1` [Example T515, 2-(3-chloro-4-(6-(1-methylcyclopropoxy)-9-((4-methylpyridin-2-yl)methyl)-9H-purin-8-yl)phenyl)-N-(2-hydroxy-2-methylpropyl)acetamide], for which the IC50 was 631 nM.
Same read-out and setting: the same measure for `Cc1ccccc1Cn1c(-c2ccc(OCCC(=O)O)cc2Cl)nc2c(OC3(C)CC3)ncnc21` [Example T168, 3-(3-chloro-4-(9-(2-methylbenzyl)-6-(1-methylcyclopropoxy)-9H-purin-8-yl)phenoxy)propanoic acid]: 1260 nM; for `CC1(Oc2ncnc3c2nc(-c2ccc(OCCN4CC5(CCN5)C4)cc2Cl)n3Cc2cc(Cl)ccn2)CC1` [Example T486, 8-(4-(2-(1,6-diazaspiro[3.3]heptan-6-yl)ethoxy)-2-chlorophenyl)-9-((4-chloropyridin-2-yl)methyl)-6-(1-methylcyclopropoxy)-9H-purine]: 501 nM.

The same test, now with this note: Homo sapiens, DLD-1, first proliferation column; DLD-1 BRCA2-/-; read-out: POLQ PD Prolif Lumin (converted).
For the compound `Cc1ccnc(Cn2c(-c3ccc(OCC(=O)N(C)CC4(O)CC4)cc3Cl)nc3c(OC4(C)CC4)ncnc32)c1` [Example T583, 2-(3-chloro-4-(6-(1-methylcyclopropoxy)-9-((4-methylpyridin-2-yl)methyl)-9H-purin-8-yl)phenoxy)-N-((1-hydroxycyclopropyl)methyl)-N-methylacetamide], the IC50 was 2000 nM.
As to `CC1(Oc2ncnc3c2nc(-c2ccc(OCCN4C[C@H]5CC[C@@H]4CN5)cc2Cl)n3Cc2ccccc2)CC1` (relative stereo) [Example T604, rel-(1R,4R)-2-(2-(4-(9-benzyl-6-(1-methylcyclopropoxy)-9H-purin-8-yl)-3-chlorophenoxy)ethyl)-2,5-diazabicyclo[2.2.2]octane], the IC50 is 251 nM.

The same test, now with this note: Homo sapiens, DLD-1, proliferation, luminescence, taken as DLD-1 BRCA2-/-; read-out: POLQ PD Prolif Lumin (converted).
For `CC(CCCOc1ccc(-c2nc3c(OC4(C)CC4)ncnc3n2Cc2cccc(Cl)c2)c(Cl)c1)C(=O)O` (single isomer, unassigned) [Example T438, 5-(3-chloro-4-(9-(3-chlorobenzyl)-6-(1-methylcyclopropoxy)-9H-purin-8-yl)phenoxy)-2-methylpentanoic acid], the IC50 was 126 nM.
Still for that read-out and setting: the same measure for `Cc1ccnc(Cn2c(-c3ccc(OCC(=O)N4C[C@@H](O)[C@H](F)C4)cc3Cl)nc3c(OC4(C)CC4)ncnc32)c1` [Example T423, 2-(3-chloro-4-(6-(1-methylcyclopropoxy)-9-((4-methylpyridin-2-yl)methyl)-9H-purin-8-yl)phenoxy)-1-((3R,4R)-3-fluoro-4-hydroxypyrrolidin-1-yl)ethan-1-one]: 1000 nM.
